2 molecules from patent US9127040B2, “Regulation of sodium channels by PLUNC proteins” (The University of North Carolina at Chapel Hill, priority 2011, dated 2015) can be followed below.

Broadly, the Kd is the free concentration of one partner at which half of the binding sites on the other are occupied at equilibrium, for simple one-to-one binding. High values mean a looser complex, low ones a tighter complex.

Ends that are not written are not given here.

In experiment [1] the target is T1, αENaC-eGFP and βENaC-mCherry (Homo sapiens, UniProt P37088+P51168).
T1 construct: expressed in transfected cells
As to the kind of experiment: Acceptor-photobleaching FRET between fluorescently tagged ENaC subunits. The format is cell-based. Particulars: one hour of exposure. The source says: Ai, cartoon of αENaC-eGFP and βENaC-mCherry under basal conditions (γENaC not shown). Aii We hypothesize that S18 binding to the extracellular loop of βENaC (1) induces a conformational change in ENaC which is reflected as altered intracellular FRET (2). This change may facilitate NEDD4-2-induced ubiquitination (3), leading to internalization of αβγENaC (4). […] In contrast, exposure to aprotinin had no effect. All n=8-10. C, Typical confocal images of HEK cells expressing αγENaC and βENaC-eGFP before and 1 h after 100 μM S18. Cell outlines are traced in white.
Since ENaC is regulated by NEDD4-2 binding to its C-termini, which leads to ubiquitination of its N-termini and internalization, we propose that S18 causes a conformational change in ENaC, leading to increased ubiquitination followed by internalization (FIG. 21A). As a first step towards understanding the mechanism of action of SPLUNC1, we performed FRET on fluorescently tagged ENaCs. […] Furthermore, βENaC-eGFP internalized upon S18 binding (FIG. 21C), consistent with our surface biotinylation data from oocytes.

A further experiment deals with T2, αENaC (Homo sapiens, UniProt P37088).
T2 sequence (P37088 1-669): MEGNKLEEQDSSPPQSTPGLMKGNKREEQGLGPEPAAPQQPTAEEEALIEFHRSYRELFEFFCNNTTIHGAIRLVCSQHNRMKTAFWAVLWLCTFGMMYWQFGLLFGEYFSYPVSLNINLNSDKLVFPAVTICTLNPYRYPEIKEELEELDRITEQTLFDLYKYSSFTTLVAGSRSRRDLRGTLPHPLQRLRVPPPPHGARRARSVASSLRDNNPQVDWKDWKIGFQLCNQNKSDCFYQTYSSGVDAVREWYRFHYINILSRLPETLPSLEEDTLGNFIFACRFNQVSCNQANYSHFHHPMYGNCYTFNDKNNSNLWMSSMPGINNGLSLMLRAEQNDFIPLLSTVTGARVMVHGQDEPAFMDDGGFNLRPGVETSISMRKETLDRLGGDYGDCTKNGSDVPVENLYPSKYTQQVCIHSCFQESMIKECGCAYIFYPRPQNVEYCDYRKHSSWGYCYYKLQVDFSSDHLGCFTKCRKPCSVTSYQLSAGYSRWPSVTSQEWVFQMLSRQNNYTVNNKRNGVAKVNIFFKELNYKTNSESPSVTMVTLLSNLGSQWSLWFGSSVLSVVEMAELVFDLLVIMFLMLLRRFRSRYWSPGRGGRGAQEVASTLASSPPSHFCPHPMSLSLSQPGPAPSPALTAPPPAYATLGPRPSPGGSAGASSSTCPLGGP
The experiment in a line: Texas red-SPLUNC1 binding assay on JME cells expressing yfp-αENaC. Particulars: Texas red-rSPLUNC1, 30 min, polarized JME cells with yfp-αENaC; Hill fit. Also noted: expressed in transfected cells; host or cells: JME nasal epithelial cells that no longer express ENaC, lentivirus pQCXIN. How it is done:
JME cells were incubated with varying concentrations of Texas red-labeled SPLUNC1 for 30 min followed by a 5× wash with PBS. After this time images were acquired with a Nikon Ti-S inverted microscope and were quantified to obtain specific and non-specific binding using Image J. Data were then fitted with a Hill Plot to obtain the Kd.
JME nasal epithelial cells express functional ENaCs (Tong et al., Am. J. Physiol. Lung Cell. Mol. Physiol. 287:L928 (2004)). However, this attribute is lost after several passages. Thus, passaged JME cells that no longer expressed ENaC were stably infected with a lentivirus containing yfp-αENaC or an empty vector as a control and the presence or absence of αENaC was confirmed using an antibody that was constructed “in-house” that was directed against αENaC (FIG. 8).
Recombinant SPLUNC1 was labeled with Texas red according to the manufacturer's instructions (Pierce) and was freshly labeled on the day of each binding experiment. […] After this time yfp (514 nm excitation) and Texas red fluorescence (590 nm excitation) were imaged under a 60× water objective on a Nikon Ti-S inverted microscope equipped with an Orca CCD camera (Hamamatsu) switchable filter wheels (Ludl). Background fluorescence was subtracted from all images and the mean thresholded intensity was quantified to obtain specific and non-specific binding using Image J.

T1 sequence (P51168 whole entry, one chain of several): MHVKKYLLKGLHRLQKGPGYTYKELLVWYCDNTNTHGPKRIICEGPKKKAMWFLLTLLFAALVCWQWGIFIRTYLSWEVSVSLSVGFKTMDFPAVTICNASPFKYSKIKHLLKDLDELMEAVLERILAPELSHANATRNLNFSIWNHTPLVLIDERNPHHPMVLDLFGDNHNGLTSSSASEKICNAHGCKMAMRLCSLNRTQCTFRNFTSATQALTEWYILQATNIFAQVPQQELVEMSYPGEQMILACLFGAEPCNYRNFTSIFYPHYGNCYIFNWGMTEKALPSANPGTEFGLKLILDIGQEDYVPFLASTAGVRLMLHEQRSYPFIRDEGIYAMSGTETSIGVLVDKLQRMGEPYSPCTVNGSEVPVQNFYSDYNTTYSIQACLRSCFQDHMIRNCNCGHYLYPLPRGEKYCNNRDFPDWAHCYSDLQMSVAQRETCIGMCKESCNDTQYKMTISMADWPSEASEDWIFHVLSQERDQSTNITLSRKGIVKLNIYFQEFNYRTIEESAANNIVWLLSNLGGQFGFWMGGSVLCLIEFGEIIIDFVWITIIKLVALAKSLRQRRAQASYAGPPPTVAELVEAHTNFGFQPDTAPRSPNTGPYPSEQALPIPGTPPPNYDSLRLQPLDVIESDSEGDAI
T1 sequence (P51170 whole entry partner, one chain of several): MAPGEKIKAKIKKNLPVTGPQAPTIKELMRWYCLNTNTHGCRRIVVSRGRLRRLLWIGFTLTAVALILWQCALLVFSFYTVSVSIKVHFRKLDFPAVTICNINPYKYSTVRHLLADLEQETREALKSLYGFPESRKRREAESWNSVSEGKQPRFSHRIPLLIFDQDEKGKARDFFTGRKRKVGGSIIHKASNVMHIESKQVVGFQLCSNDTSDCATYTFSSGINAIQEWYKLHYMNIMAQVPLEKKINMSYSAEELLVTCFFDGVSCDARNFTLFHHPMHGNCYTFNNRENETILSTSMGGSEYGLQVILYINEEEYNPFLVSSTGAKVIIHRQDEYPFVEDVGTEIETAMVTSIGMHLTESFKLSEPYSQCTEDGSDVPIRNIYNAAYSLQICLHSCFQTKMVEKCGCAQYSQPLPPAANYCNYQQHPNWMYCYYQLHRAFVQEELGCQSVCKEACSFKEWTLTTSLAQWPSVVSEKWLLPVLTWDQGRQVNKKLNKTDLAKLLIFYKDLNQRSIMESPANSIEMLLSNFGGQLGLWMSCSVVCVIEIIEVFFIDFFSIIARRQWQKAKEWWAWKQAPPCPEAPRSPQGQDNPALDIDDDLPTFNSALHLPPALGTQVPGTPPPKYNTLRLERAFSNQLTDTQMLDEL

Regarding GGLPVPLDQTLPLNVNPA [S18], the “FRET between αENaC-eGFP and βENaC-mCherry” value in experiment [1] is recorded as “significantly diminished”.

B1: SPLUNC1: human SPLUNC1 (SEQ ID NO:1), 256 amino acid secreted PLUNC family protein; rSPLUNC1 is the purified V5/6His-tagged recombinant form (protein, listed as Homo sapiens)
chain: MFQTGGLIVFYGLLAQTMAQFGGLPVPLDQTLPLNVNPALPLSPTGLAGSLTNALSNGLLSGGLLGILENLPLLDILKPGGGTSGGLLGGLLGKVTSVIPGLNNIIDIKVTDPQLLELGLVQSPDGHRLYVTIPLGIKLQVNTPLVGASLLRLAVKLDITAEILAVRDKQERIHLVLGDCTHSPGSLQISLLDGLGPLPIQGLLDSLTGILNKVLPELVQGNVCPLVNEVLRGLDITLVHDIVNMLIHGLQFVIKV
modifications: V5/6His tag in recombinant form
notes: rSPLUNC1 is the purified V5/6His-tagged recombinant form
In the experiment with αENaC, B1 displayed a Kd of 0.055 µg/mL.
